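All cell lines were grown in 96-well plates and treated with compound for 48 hours. GI50: concentration for 50% inhibition of growth.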 Calls of active or inactive are those of the source. Cut-off read from the data, not from the text of the source: active = GI50 up to about 1.1 µM and inactive = higher.
Key:
Assay in all cases: DTP human tumour cell line panel, 48 h
NCI-H522 = system: NCI-H522
SK-MEL-2 = system: SK-MEL-2
SR = system: SR
SK-OV-3 = system: SK-OV-3
SF-295 = system: SF-295
A549 = system: A549
HCT-116 = system: HCT-116
CAKI-1 = system: CAKI-1
RPMI-8226 = system: RPMI-8226
Malme-3M = system: Malme-3M
SN12C = system: SN12C
EKVX = system: EKVX
HT-29 = system: HT-29
U-251 = system: U-251
UACC-257 = system: UACC-257
UACC-62 = system: UACC-62
COLO 205 = system: COLO 205
SNB-19 = system: SNB-19
LOX IMVI = system: LOX IMVI

Structure (SMILES) | GI50 (NCI-H522) | GI50 (SK-MEL-2) | GI50 (SR) | GI50 (SK-OV-3) | GI50 (SF-295) | GI50 (A549) | GI50 (HCT-116) | GI50 (CAKI-1) | GI50 (RPMI-8226) | GI50 (Malme-3M) | GI50 (SN12C) | GI50 (EKVX) | GI50 (HT-29) | GI50 (U-251) | GI50 (UACC-257) | GI50 (UACC-62) | GI50 (COLO 205) | GI50 (SNB-19) | GI50 (LOX IMVI)
CCC1=C(C[C@H]2NCCc3cc(OC)c(OC)cc32)C[C@H]2c3cc(OC)c(OC)cc3CCN2C1 | 0.0257 µM (active) | 0.0248 µM (active) | 0.0101 µM (active) | 0.0637 µM (active) | 0.0331 µM (active) | 0.0317 µM (active) | 0.0173 µM (active) | 0.0312 µM (active) | 0.021 µM (active) | 0.136 µM (active) | 0.0326 µM (active) | 0.0362 µM (active) | 0.0272 µM (active) | 0.031 µM (active) | 0.0473 µM (active) | 0.0336 µM (active) | – | – | –
CC(=O)NC1C(OCc2ccccc2)OC(CO)C(O)C1OC(C)C(=O)N[C@@H](C)C(=O)N[C@H](CCC(=O)OCCNc1c2ccccc2nc2cccc([N+](=O)[O-])c12)C(N)=O (stereo partly drawn) | 0.00174 µM (active) | 0.00211 µM (active) | 3.64e-05 µM (active) | 0.00711 µM (active) | 0.00427 µM (active) | 0.00146 µM (active) | 0.000195 µM (active) | 0.00625 µM (active) | 0.000782 µM (active) | 0.00158 µM (active) | 0.00531 µM (active) | 0.00165 µM (active) | 0.000186 µM (active) | – | 0.00339 µM (active) | 0.000451 µM (active) | 0.00111 µM (active) | 0.000187 µM (active) | –
Cn1c(=O)c2c(nc3n2C(CCl)CO3)n(C)c1=O (stereo not drawn) | > 100 µM (inactive) | > 100 µM (inactive) | > 100 µM (inactive) | > 100 µM (inactive) | > 100 µM (inactive) | – | > 100 µM (inactive) | > 100 µM (inactive) | > 100 µM (inactive) | > 100 µM (inactive) | > 100 µM (inactive) | > 100 µM (inactive) | > 100 µM (inactive) | > 100 µM (inactive) | > 100 µM (inactive) | > 100 µM (inactive) | > 100 µM (inactive) | > 100 µM (inactive) | –
CC(C)(C)c1ccc(OCCOCCOc2ccc(C(C)(C)C)cc2S(N)(=O)=O)c(S(N)(=O)=O)c1 | – | 67.8 µM (inactive) | – | > 100 µM (inactive) | > 100 µM (inactive) | 35.8 µM (inactive) | 17.4 µM (inactive) | > 100 µM (inactive) | 7.55 µM (inactive) | 28.5 µM (inactive) | > 100 µM (inactive) | > 100 µM (inactive) | 6.84 µM (inactive) | > 100 µM (inactive) | 45.6 µM (inactive) | 52.1 µM (inactive) | > 100 µM (inactive) | > 100 µM (inactive) | 23.7 µM (inactive)
Cn1c(=O)c2ccccc2c2nc3ccccc3nc21 | – | > 100 µM (inactive) | > 100 µM (inactive) | 37.2 µM (inactive) | 59.2 µM (inactive) | > 100 µM (inactive) | > 100 µM (inactive) | – | > 100 µM (inactive) | > 100 µM (inactive) | > 100 µM (inactive) | > 100 µM (inactive) | > 100 µM (inactive) | > 100 µM (inactive) | > 100 µM (inactive) | > 100 µM (inactive) | > 100 µM (inactive) | > 100 µM (inactive) | –
C/C(CC(=O)Nc1cc(Cl)c(Cl)cc1Cl)=N\NC(N)=O | 28.1 µM (inactive) | > 100 µM (inactive) | – | > 100 µM (inactive) | > 100 µM (inactive) | > 100 µM (inactive) | > 100 µM (inactive) | – | > 100 µM (inactive) | > 100 µM (inactive) | – | > 100 µM (inactive) | > 100 µM (inactive) | > 100 µM (inactive) | > 100 µM (inactive) | > 100 µM (inactive) | > 100 µM (inactive) | – | > 100 µM (inactive)
